Laboratory results taken from patent US20260294870A1, “INDOLE LACTATE FOR THE TREATMENT OF MULTIPLE SCLEROSIS” (The Johns Hopkins University, priority 2023, published 2026).
“Also recorded” adds a separate entry of the source. Blank lines part the entries; values can stand above or below the molecule they belong to.

Experiments:
macrophages = experiment: Nitric oxide production in macrophages; assay type: cell-based
[1] = tested on: mouse model of demyelination (cuprizone); experiment: Cuprizone model of demyelination, oral ILA in drinking water; assay type: in vivo, mice
Procedure: In subsequent experiments, we fed mice with 0.2% cuprizone for 5 weeks and then randomized them to ILA 2 mM in drinking water or acidified water as a control for 2 weeks. […] These observations provide evidence that oral administration of ILA promotes remyelination in vivo in a mouse model of demyelination.

[2] = tested on: human embryonic stem cell derived oligodendrocyte precursor cells; experiment: Differentiation of human embryonic stem cell derived oligodendrocyte precursor cells (luciferase under MBP promoter); assay type: cell-based
Source text: We also tested the effect of indole lactate on differentiation of human embryonic stem cell derived oligodendrocyte precursor cells. In this system, the cells produce luciferase under control of the promoter for MBP. Thus, OPC differentiation can be measured using the quantity of luciferase produced by cells.

[3] = Circulating ILA and IAA levels with oral ILA supplementation; assay type: in vivo, mice
Source text: FIG. 12A, FIG. 12B, FIG. 12C, FIG. 12D, FIG. 12E, FIG. 12F, FIG. 12G, FIG. 12H, and FIG. 12I show: FIG. 12A. Schematic of product of ILA and IAA and the change in levels with ILA supplementation in naïve mice. FIG. 12B. Clinical scores and plasma ILA and IAA levels at end of experiment in mice on vehicle or oral ILA supplementation. FIG. 12C. Change in ILA/IAA ratio. FIG. 12D. Correlation of ILA/IAA ratio and cumulative EAE score. FIG. 12E. Gut microbiota composition in vehicle and ILA groups at various time points (n=10 each group). FIG. 12F. Change in alpha diversity over the course of EAE.

[4] = tested on: Cuprizone-induced model of demyelination; experiment: Cuprizone-induced model of demyelination, ILA 20 or 40 mg/kg; assay type: in vivo, Mice; settings: 0.2% Cuprizone 4 weeks then regular chow one week
Procedure: We tested the ability of indole lactate to promote remyelination in the Cuprizone-induced model of demyelination. Mice were fed with 0.2% Cuprizone for 4 weeks to induce demyelination and then switched to regular chow for one week. At three weeks of Cuprizone feeding mice were randomized to treatment with ILA 20 mg/kg, ILA 40 mg/kg or vehicle for two weeks.

gut microbiota = experiment: Gut microbiota in EAE mice by 16s rRNA sequencing; assay type: in vivo
Source text: We examined the change in the gut microbiota using 16s rRNA sequencing at baseline, peak of disease and chronic disease in mice receiving ILA or vehicle orally.

[5] = tested on: Arylhydrocarbon Receptor (AhR); experiment: CYP1B1 (AhR responsive gene) expression in human ES derived OPCs, quantitative PCR; assay type: cell-based
Source text: We noted presence of AhR in Olig2+ and PDGFRα+ cells confirming that AhR is present in oligodendrocyte precursor cells. We also obtained RNA from human ES derived OPCs that had been treated with either vehicle or two different doses of ILA for 5 days.

[6] = tested on: Murine MOG specific T cells; experiment: T cell proliferation, activation and Th17 polarization by flow cytometry; assay type: cell-based, murine (2D2 TCR transgenic C57/BL6 mice)
Procedure: Murine MOG specific T cells were isolated and stimulated with […] Th17 polarizing conditions for 72 hours followed by flow-cytometry to analyze viability, proliferation and Th17 polarization in presence of vehicle or varying doses of ILA;
T cells were isolated from spleen and lymph nodes of 2D2 TCR transgenic C57/BL6 mice using negative selection (STEMCELL CD4 T cell isolation kit). T cells were then cultured in c-RPMI with MOG35-55 peptide in the presence of irradiated antigen presenting cells with or without additional cytokines to polarize the cells to a Th17 phenotype for 72 hours and then underwent flow-cytometry to analyze proliferation and Th17 polarization.

human ES derived OPCs = experiment: OPC differentiation of human ES derived OPCs with AhR antagonist; assay type: cell-based; settings: small molecule AhR antagonist
Source text: We also tested the effects of blocking AhR signaling using a small molecules AhR antagonist.

OPCs from Ahr KO mice = experiment: OPC differentiation in OPCs from constitutive Ahr-KO mice; assay type: cell-based; settings: listed as ILA
Source text: We further evaluated the mechanism of ILA using OPCs from mice that lack the Ahr gene—constitutive Ahr-KO mice.

[7] = tested on: experimental autoimmune encephalomyelitis; experiment: Experimental autoimmune encephalomyelitis, indole lactate IP; assay type: in vivo, Mice (C57/BL6); settings: for Disease severity (EAE): p<0.0001
Source text: (§1) Mice (C57/BL6, 8-9 week old) were immunized with MOG35-55 peptide and CFA and received IP injection of PTX on day 0 and 2. […] Mice were weighed and scored daily using the following scale (0-normal, 1-limp tail, 2-hind-limb weakness, 3-hind-limb paralysis, 4-fore-limb weakness, 5-death).

[8] = tested on: experimental autoimmune encephalomyelitis; experiment: Experimental autoimmune encephalomyelitis, oral indole lactate; assay type: in vivo, Mice (C57/BL6); settings: for severity of EAE: oral, ILA 2 mM in drinking water from day 7 post-immunization, 3 weeks, p<0.0001 vs vehicle
Procedure: as §1
We subsequently performed additional experiments in which we induced EAE using the same paradigm, however at day 7 post-immunization mice were randomized to receive ILA orally in drinking water (ILA 2 mM) or acidified water (adjusted to a similar pH) for the next 3 weeks. At four weeks post-immunization mice were euthanized and tissues were collected and processed for immunohistochemistry. We stained sections of the spinal cord to assess for extent of demyelination and for infiltration of immune cells.
Additionally, we repeated experiments and euthanized mice at the peak of disease to obtain spinal cord tissues for flow cytometric analyses.

[9] = tested on: OPCs from wild type (WT) mice; experiment: OPC differentiation in OPCs from WT mice; assay type: cell-based
[10] = tested on: murine oligodendrocyte precursor cells; experiment: Differentiation of murine oligodendrocyte precursor cells (immunocytochemistry, qPCR); assay type: cell-based, murine (neonatal mice); settings: for OPC differentiation after PDGF-a withdrawal: PDGF-a withdrawal plus ILA or T3; for OPC differentiation (CC1 expression): compared to control conditions or OPCs treated with PDGF-a
Source text: We tested the effect of several doses of indole lactate on differentiation of oligodendrocyte precursor cells isolated using immune-panning from neonatal mice.

[11] = ILA 2 mM in drinking water, 2 weeks, vs vehicle
[12] = spinal cord, four weeks post-immunization, oral ILA 2 mM in drinking water
[13] = spinal cord, peak of disease, oral ILA

- ILA/IAA ratio ([3]; EAE mice): increase in ILA/IAA ratio
- circulating ILA levels ([3]; naïve mice): increased circulating ILA levels
- CYP1B1 expression ([5]; high-dose ILA): CYP1B1 expression increased
- expression of CYP1B1 (AhR responsive gene) ([5]; two doses of ILA, 5 days, vs vehicle, dose-response relationship): increased expression of CYP1B1
SMILES: O=C(O)C(O)Cc1c[nH]c2ccccc12 (stereo not drawn) [indole lactate, indole-3-lactic acid]
- production of nitric oxide in macrophages (macrophages): reduced pro-inflammatory cytokine production from T cells in culture and the production of nitric oxide in macrophages
- remyelination in the corpus callosum (black gold and fluoromyelin staining) ([1]; ILA 2 mM in drinking water, 2 weeks after 0.2% cuprizone 5 weeks, vs acidified water): significantly increased remyelination
- g ratio (scanning EM, corpus callosum) [1, 11]: significantly lower g ratio
- proportion of myelinated axons (scanning EM, corpus callosum) [1, 11]: higher proportion of myelinated axons
- proportion of remyelinated axons (electron micrographs, corpus callosum) ([1]; oral ILA vs vehicle): higher proportion of remyelinated axons
- oligodendrocyte precursor cell differentiation based on production of luciferase (marker of MBP expression) ([2]; 100 μM): promoted oligodendrocyte precursor cell differentiation
- oligodendrocyte precursor cell differentiation based on production of luciferase (marker of MBP expression) ([2]; 300 μM): promoted oligodendrocyte precursor cell differentiation
- OPC differentiation measured by Luciferase release ([2]; ILA treatment conditions, dose-dependent): significant increase in OPC differentiation
- area of myelination in the corpus callosum (Black Gold staining) ([4]; ILA 20 mg/kg for two weeks): significant increase in area of myelination
- area of myelination in the corpus callosum (Black Gold staining) ([4]; ILA 40 mg/kg for two weeks): significant increase in area of myelination
- acetylene degradation pathway (gut microbiota functional pathway) (gut microbiota; ILA supplementation): reduced acetylene degradation pathway
- change in multiple bacteria (abundance) (gut microbiota; oral ILA vs vehicle): differential change in multiple bacteria
- overall composition of the gut microbiota (gut microbiota; oral ILA vs vehicle, baseline, peak and chronic disease): change in the overall composition of the gut microbiota
- T cell activation ([6]; 72 hours): reduces T cell proliferation, activation
- Th17 polarization ([6]; MOG35-55 peptide, Th17 polarizing cytokines, 72 hours, dose-dependent): reduced T cell proliferation and Th17 polarization in a dose-dependent manner
- T cell proliferation ([6]; MOG35-55 peptide, irradiated antigen presenting cells, 72 hours, dose-dependent): reduces T cell proliferation; also recorded: reduced T cell proliferation and Th17 polarization in a dose-dependent manner
- pro-inflammatory cytokine production from T cells ([6]; in culture): reduces T cell proliferation, activation and pro-inflammatory cytokine production; also recorded: reduced pro-inflammatory cytokine production
- effect of AhR antagonist on pro-differentiating effect of ILA (human ES derived OPCs; high doses of ILA): this effect was lost at high doses
- pro-differentiating effect of ILA in presence of AhR antagonist (human ES derived OPCs; low doses of ILA, listed as ILA): an AhR inhibitor reverses the effects of ILA on OPC differentiation; also recorded: the AhR antagonist blocked the pro-differentiating effects
- OPC differentiation (pro-differentiation effect of ILA) (OPCs from Ahr KO mice): loss of pro-differentiation effect; also recorded: the effect was lost
- disease severity, dose dependence (EAE) ([7]; 10 and 20 mg/kg IP twice daily vs vehicle): significant dose-dependent reduction in disease severity
- Disease severity (EAE) ([7]; high-dose (20 mg/kg) IP twice daily vs vehicle): reduced significantly
- Disease severity (EAE) ([7]; low-dose (10 mg/kg) IP twice daily vs vehicle): reduced significantly
- immune cell infiltration on IHC and flow cytometry analysis ([8]; oral indole lactate vs vehicle): reduction in immune cell infiltration
- severity of EAE [8]: reduced significantly
- severity of EAE ([8]; listed as ILA): reduced severity of EAE
- extent of demyelination on IHC [8, 12]: reduced extent of demyelination
- immune cell infiltration on IHC [8, 12]: reduced extent of demyelination and immune cell infiltration
- iNOS producing inflammatory macrophages (flow cytometry) [8, 13]: shift towards less iNOS producing inflammatory macrophages
- infiltration of T cells and macrophages (flow cytometry) [8, 13]: reduced infiltration of T cells and macrophages
- OPC differentiation [9]: promoted OPC differentiation
- proportion of Olig2 and CC1 double-positive cells ([10]; ILA 150 μM vs vehicle): significantly higher proportion
- proportion of Olig2 and CC1 double-positive cells ([10]; ILA 300 μM vs vehicle): significantly higher proportion
- expression of MBP (qPCR) ([10]; ILA 300 μM with low dose T3 compared to T3 alone): significantly higher expression
- OPC differentiation after PDGF-a withdrawal [10]: further potentiated
- OPC differentiation (CC1 expression) [10]: dose-dependent increase in OPC differentiation
- OPC differentiation (CC1 expression) ([10]; listed as ILA): increased differentiation of OPCs

SMILES: N[C@@H](Cc1cc(I)c(Oc2ccc(O)c(I)c2)c(I)c1)C(=O)O [T3, reference compound]
- OPC differentiation after PDGF-a withdrawal [10]: further potentiated
